Experiment [1] relates to MCF-7 breast adenocarcinoma cells. Put plainly: MTT cell viability assay, MCF-7. The settings on record: for IC50 / viability at 10 µM: Homo sapiens, MCF7, 72 h; for viability at 10 µM: read-out: cell viability percentage in relation to control, MCF-7; for SI MCF-7 (selectivity index versus NHDF): MCF-7 versus NHDF, 72 h. As to the method:
To evaluate the anticancer potential of monomethine cyanine dyes 1–12, a cell proliferation study was conducted using the 3-(4,5-dimethylthiazol-2-yl)-2,5-diphenyltetrazolium bromide (MTT) assay. For this preliminary evaluation, a concentration of 10 µM for each dye was tested, with the well-established chemotherapy agent 5-fluorouracil (5-FU) serving as a positive control. The assay included normal human dermal fibroblasts (NHDF) as non-tumor cells, alongside tumor cell lines from colorectal (Caco-2), prostate (PC-3), and breast (MCF-7) adenocarcinomas.
The cell lines used in this study (Caco-2, MCF-7, PC-3, and NHDF) were obtained from the American Type Culture Collection (ATCC, Manassas, VA, USA) and cultured in 75 cm^2 culture flasks at 37 °C in a humidified atmosphere with 5% CO2 in a LEEC Culture Safe Precision CO2 Incubator. PC-3 cells were grown in Roswell Park Memorial Institute (RPMI) medium supplemented with 10% of inactivated Fetal Bovine Serum (FBS) and 1% of an antibiotic mixture (Sp; 10,000 U/mL of penicillin G and […] of streptomycin). MCF-7 and Caco-2 cell lines were both cultured using Dulbecco’s Modified Eagle Medium (DMEM). However, the medium for MCF-7 cells was complemented with 10% of inactivated FBS and 1% of antibiotic/antimycotic mixture (Ab; 10,000 U/mL of penicillin G, […] of streptomycin and 25 µg/mL of amphotericin B), and the medium for Caco-2 cells was supplemented with 20% of inactivated FBS and 1% of Sp. Finally, RPMI medium supplemented with 10% FBS, 2 mM of L-glutamine, 10 mM of 4-(2-hydroxyethyl)-1-piperazineethanesulfonic acid (HEPES), 1 mM of sodium pyruvate, and 1% of Ab was used to culture NHDF cells. The culture media were renewed every two to three days until near confluence was achieved. Then, cells were detached using a solution of 0.125 g/L of trypsin and 0.02 g/L of ethylenediaminetetracetic acid (EDTA), counted by the trypan blue method, resuspended, and adequately seeded to continue the culture in 75 cm^2 flasks or for the experiments described below. All manipulations were performed in a Labculture Class II A2 Biological Safety Cabinet.
After trypsinization, cells were seeded in 96-well culture plates (100 µL; 2 × 10^4 cells/mL), and after 48 h (for adherence), they were incubated with the compounds under study in the absence of light for a duration of 72 h. Then, the medium was removed, and fresh incomplete culture medium (without FBS and Ab or Sp) and MTT solution [5 mg/mL in phosphate buffer saline (PBS)] were added to each well, followed by 4 h of incubation. After this, the medium containing MTT was removed and DMSO was added to dissolve formazan crystals. The absorbance of each well at 570 nm was determined using a microplate spectrophotometer Bio-Rad (Hercules, CA, USA) xMark. Untreated cells were considered the negative control, and 5-FU, a clinically used drug, was considered the positive control. For data analysis, the relative cell proliferation relative to the negative control cells was calculated. For each cell viability study, at least two independent assays in quadruplicate were performed. Increasing concentrations of the compounds between 0.001 and 100 μM were used to determine the IC50 values.

The subject of another experiment is Caco-2 cells. Put plainly: Apoptosis (sub-G1 events) by PI staining and flow cytometry. Type of experiment: cell-based, human. Conditions: 72 h. On the procedure: Given that apoptosis is a common programmed mechanism regulating cell death, characterized by DNA fragmentation and an increase in sub-G1 events, we employed the method described by Riccardi and Nicolleti to assess potential apoptosis induction using flow cytometry. Cyanine dyes 5 and 10 were tested at concentrations of 1 µM and 10 µM, respectively. As positive controls for apoptosis, 600 mM sorbitol and 10 µM 5-FU were used, with untreated cells serving as the negative control. […] In contrast, dye 10 induced a slight increase in apoptosis, reaching 1.7%. […] Apoptotic bodies were more evident in cells treated with dye 5 compared to dye 10, which is further supported by the slightly higher apoptosis induction in this assay.
Apoptosis (sub-G1 events) and cell cycle distribution were evaluated by propidium iodide (PI) staining and flow cytometry, as described by Riccardi and Nicolleti. […] Untreated cells were used as the negative control, and sorbitol and 5-FU were used as positive controls. After incubation, the supernatant was collected in a centrifuge tube, cells were washed with PBS, trypsinized and wells were once again washed with PBS. This cell suspension was maintained on ice, centrifugated at 300 g for 5 min, and then the pellet was resuspended in 0.5 mL of PBS. Cells were fixed by adding 4.5 mL of 70% ethanol cooled at −20 °C on ice and were stored at −20 °C for a period ranging from one to a few days. On the day of flow cytometry analysis, PBS was added to the fixed cell tubes, followed by centrifugation and removal of the supernatant. The pellet was resuspended in 0.5 mL of PBS and 0.5 mL of DNA extraction solution (192 mL of 0.2 M sodium phosphate and 8 mL of […], pH 7.8). After incubation for 5 min, the cells were once again centrifuged, the supernatant was removed, and the pellet was resuspended in 0.3 mL of staining solution (20 µg/mL of PI and 0.2 mg/mL of DNase-free RNase in PBS). Using a FACSCalibur flow cytometer (Becton Dickinson, Franklin Lakes, NJ, USA) with a 488 nm laser line, a minimum of 20,000 events were acquired and recorded using the BD CellQuestTM Pro 4.0.2 software, and analyzed with FlowJo 10.5.3 software. To exclude debris and necrotic cells, events with a lower diameter (forward scatter; FCS) and PI fluorescence (FL3) than the hypodiploid apoptotic cells were eliminated (Figures S1 and S2). Two independent experiments were performed. A Student’s t-test was performed to evaluate the statistical significance of the results.
On the technique in general: Flow cytometry measures light scatter and fluorescence of single cells or particles in a stream.

A further experiment relates to NHDF cell line. Put plainly: Phototoxicity assay (MTT after white light irradiation). Type of experiment: cell-based. The settings on record: Homo sapiens, light or radiation study, 30 min white light irradiation (30 W RGB LED) after 48 h, 72 h in total. As to the method:
While this work focused on monomethine cyanine dyes designed to be used at the outer edge of the “phototherapeutic window” (650–850 nm), photocytotoxicity and photostability studies were carried out for cyanines 5 and 10, as part of an effort to determine whether there would be synergistic action from light exposure on their cytotoxicity. A 30 W RGB LED light source, previously validated by our research group, was applied to the NHDF cell line using the MTT assay. […] These reductions in cytotoxicity align with previous studies on similar compounds and are likely due to some level of photodegradation.
A phototoxicity evaluation was performed on the NHDF cell line with a similar methodology to the MTT assay and following previously validated methods. After 48 h of incubation with increasing concentrations ranging from 0.001 to 100 μM, cells were subjected to 30 min of constant irradiation with the white light of a Luxtar (Yancheng, Jiangsu, China) RGBW LED projector (220–240 V and 30 W). After this irradiation, the cells were incubated at 37 °C for an additional 24 h (72 h in total). This assay was performed in quadruplicate, and two independent assays were realized.

Setting [2] is: read-out: IC50 MCF-7, MCF-7, 72 h incubation, MTT.

Where two headings read alike, the source gives them in different places.

In general, IC50 refers to the concentration that gives 50% inhibition. In general, viability refers to a read-out of living cells in per cent, often relative to untreated cells. For `O=c1[nH]cc(F)c(=O)[nH]1` [5-FU, 5-fluorouracil, reference compound], the IC50 in experiment [1] (read-out: IC50 MCF-7) amounted to 2.12 µM. In experiment [1], the viability at 10 µM was 25.3 ± 4.94% and the “SI MCF-7 (selectivity index versus NHDF)” value is listed as 2.1. In the experiment on Caco-2 cells (Caco-2, 10 µM), the “apoptosis (sub-G1 events), % of cells” value was determined as 12.8%.
`CN1C(=Cc2oc3ccccc3[n+]2C)C=Cc2ccccc21.Cc1ccc(S(=O)(=O)[O-])cc1` [Dye 5, 3-Methyl-2-((1-methylquinolin-2(1H)-ylidene)methyl)benzo[d]oxazol-3-ium 4-methylbenzenesulfonate]: the half-maximal inhibitory concentration (IC50) with NHDF cell line was 4.07 µM. The IC50 in experiment [1] (setting [2]) stood at 3.83 µM. In experiment [1], the viability at 10 µM stood at 6.34 ± 1.06% and the “SI MCF-7 (selectivity index versus NHDF)” value stood at 0.7. Moreover, the “apoptosis (sub-G1 events), % of cells” value with Caco-2 cells (Caco-2, 1 µM) is on record as “approximately 2.3%”.
`CCN1C(=Cc2sc3cc([N+](=O)[O-])ccc3[n+]2CC)Sc2ccccc21.Cc1ccc(S(=O)(=O)[O-])cc1` [Dye 10, 3-Ethyl-2-((3-ethylbenzo[d]thiazol-2(3H)-ylidene)methyl)-6-nitrobenzo[d]thiazol-3-ium 4-methylbenzenesulfonate]: the 50% inhibitory concentration (IC50) with NHDF cell line was 34.1 µM. Further, the IC50 in experiment [1] (setting [2]) worked out at 13.3 µM. For the same compound, in experiment [1], the viability at 10 µM is 10.6 ± 6.44% and the “SI MCF-7 (selectivity index versus NHDF)” value stood at 1.7. In addition, the “apoptosis (sub-G1 events), % of cells” value in the experiment on Caco-2 cells (Caco-2, 10 µM) was 1.7%.

The values are drawn from PMC11642940, “A New Demand for Improved Selectivity and Potency of Cyanine Dyes as Antiproliferative Agents Against Colorectal Cancer Cells” (Molecules, 2024).
